Calls of active or inactive are those of the source.
Assays:
[1] = THP-1 cell cytotoxicity, dose response, cytotoxicity control for non-replicating M. tuberculosis project (AID 489025); assay type: functional
[2] = HepG2 cell cytotoxicity, dose response, cytotoxicity control for non-replicating M. tuberculosis project (AID 489018); assay type: functional; details: Mycobacterium tuberculosis
[3] = molecular target: T1, Ubiquitin-conjugating enzyme E2 N (Homo sapiens, UniProt P61088); assay type: functional;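 further: Dose-response confirmation in a TR-FRET assay detecting UBC13-driven polyubiquitin chain formation, inhibition measured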
T1 sequence (P61088 whole entry): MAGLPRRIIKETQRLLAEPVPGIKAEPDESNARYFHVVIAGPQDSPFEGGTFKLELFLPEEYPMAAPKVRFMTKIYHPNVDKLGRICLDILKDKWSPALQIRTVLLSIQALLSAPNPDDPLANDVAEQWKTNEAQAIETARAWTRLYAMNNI

[4] = Vero E6 cell cytotoxicity, dose response, cytotoxicity control for non-replicating M. tuberculosis project, secondary assay (AID 492998); assay type: functional, VeroE6; details: Vero C1008
[5] = molecular target: Nonstructural protein 1 (Influenza A virus, UniProt Q194T2); assay type: functional, Influenza A virus (A/California/07/2009(H1N1))
Sequence of Nonstructural protein 1 (Q194T2 whole entry): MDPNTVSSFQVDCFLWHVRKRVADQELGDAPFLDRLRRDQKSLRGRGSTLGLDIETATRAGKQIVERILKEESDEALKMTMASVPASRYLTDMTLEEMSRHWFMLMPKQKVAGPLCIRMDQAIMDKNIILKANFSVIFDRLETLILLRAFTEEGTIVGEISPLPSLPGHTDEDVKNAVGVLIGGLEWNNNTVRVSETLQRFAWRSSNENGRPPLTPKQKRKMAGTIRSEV

[6] = cells; assay type: functional
[7] = molecular target: T2, Replicative DNA helicase DnaB (Mycobacterium tuberculosis, UniProt P9WMR3); test: DnaB intein splicing inhibitors, dose response, biochemical, cell-free fluorescence (AID 449749); assay type: functional
T2 sequence (P9WMR3 whole entry): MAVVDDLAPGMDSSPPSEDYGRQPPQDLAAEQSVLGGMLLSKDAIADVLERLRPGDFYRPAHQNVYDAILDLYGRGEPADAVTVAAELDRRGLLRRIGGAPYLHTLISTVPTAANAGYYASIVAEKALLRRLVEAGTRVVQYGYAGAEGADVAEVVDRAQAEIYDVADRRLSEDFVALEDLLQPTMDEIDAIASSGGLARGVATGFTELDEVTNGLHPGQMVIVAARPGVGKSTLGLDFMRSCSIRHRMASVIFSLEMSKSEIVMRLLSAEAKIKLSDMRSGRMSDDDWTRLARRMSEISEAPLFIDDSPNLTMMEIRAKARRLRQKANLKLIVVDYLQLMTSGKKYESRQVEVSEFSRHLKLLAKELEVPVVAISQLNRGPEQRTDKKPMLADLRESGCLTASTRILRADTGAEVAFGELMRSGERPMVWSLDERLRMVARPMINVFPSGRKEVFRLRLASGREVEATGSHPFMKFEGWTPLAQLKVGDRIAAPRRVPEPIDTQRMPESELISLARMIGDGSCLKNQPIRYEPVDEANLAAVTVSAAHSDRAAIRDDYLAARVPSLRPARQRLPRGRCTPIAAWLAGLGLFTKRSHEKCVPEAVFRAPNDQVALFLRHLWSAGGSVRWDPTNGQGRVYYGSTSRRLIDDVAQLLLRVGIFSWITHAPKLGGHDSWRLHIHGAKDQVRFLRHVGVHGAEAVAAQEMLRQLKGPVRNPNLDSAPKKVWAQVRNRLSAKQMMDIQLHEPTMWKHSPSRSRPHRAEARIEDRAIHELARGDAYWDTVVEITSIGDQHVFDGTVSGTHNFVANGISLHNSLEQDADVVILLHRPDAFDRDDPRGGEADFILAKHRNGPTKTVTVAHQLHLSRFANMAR

[8] = molecular target: T3, Apoptotic protease-activating factor 1 (Homo sapiens, UniProt O14727); assay type: functional
T3 sequence (O14727 whole entry): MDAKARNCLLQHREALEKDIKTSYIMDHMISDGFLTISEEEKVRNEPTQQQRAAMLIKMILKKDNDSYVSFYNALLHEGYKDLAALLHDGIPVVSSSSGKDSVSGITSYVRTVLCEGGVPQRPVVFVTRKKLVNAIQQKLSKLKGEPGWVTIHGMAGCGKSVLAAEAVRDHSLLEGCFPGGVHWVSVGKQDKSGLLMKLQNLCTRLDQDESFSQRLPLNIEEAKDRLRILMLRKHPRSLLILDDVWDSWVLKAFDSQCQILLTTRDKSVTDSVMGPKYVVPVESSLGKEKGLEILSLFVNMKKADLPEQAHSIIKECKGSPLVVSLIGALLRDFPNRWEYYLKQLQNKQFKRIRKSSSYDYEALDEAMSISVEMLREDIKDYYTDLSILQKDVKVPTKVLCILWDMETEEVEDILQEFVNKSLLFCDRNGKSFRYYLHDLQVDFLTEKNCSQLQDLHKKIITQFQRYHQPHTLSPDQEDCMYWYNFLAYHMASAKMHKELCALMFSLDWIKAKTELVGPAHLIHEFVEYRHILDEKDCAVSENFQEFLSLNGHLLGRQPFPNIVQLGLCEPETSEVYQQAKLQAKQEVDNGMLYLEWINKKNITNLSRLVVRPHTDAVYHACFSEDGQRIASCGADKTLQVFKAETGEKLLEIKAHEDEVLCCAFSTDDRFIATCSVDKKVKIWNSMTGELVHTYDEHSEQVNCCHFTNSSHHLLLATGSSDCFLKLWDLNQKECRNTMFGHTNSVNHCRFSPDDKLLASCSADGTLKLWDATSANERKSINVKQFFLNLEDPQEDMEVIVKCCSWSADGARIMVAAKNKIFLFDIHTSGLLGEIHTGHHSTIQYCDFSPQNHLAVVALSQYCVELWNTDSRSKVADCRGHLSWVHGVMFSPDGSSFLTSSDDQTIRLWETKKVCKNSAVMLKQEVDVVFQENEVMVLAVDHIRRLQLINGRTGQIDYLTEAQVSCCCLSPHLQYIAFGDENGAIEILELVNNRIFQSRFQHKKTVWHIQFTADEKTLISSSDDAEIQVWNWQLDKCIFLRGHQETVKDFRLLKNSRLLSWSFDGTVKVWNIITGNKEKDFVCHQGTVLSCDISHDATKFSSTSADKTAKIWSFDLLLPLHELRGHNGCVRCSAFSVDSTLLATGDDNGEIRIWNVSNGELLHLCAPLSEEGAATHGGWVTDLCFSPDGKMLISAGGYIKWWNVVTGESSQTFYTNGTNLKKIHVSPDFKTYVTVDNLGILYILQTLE

[9] = molecular target: T4, Protein RecA (Mycobacterium tuberculosis, UniProt P9WHJ3); test: Fluorescence Cell-Free Homogeneous Dose Retest to Identify Inhibitors of RecA-Intein Splicing Activity. [Related pubchem assays (depositor defined):AID2097, AID2223, AID489010, AID492950]; assay type: functional
T4 sequence (P9WHJ3 whole entry): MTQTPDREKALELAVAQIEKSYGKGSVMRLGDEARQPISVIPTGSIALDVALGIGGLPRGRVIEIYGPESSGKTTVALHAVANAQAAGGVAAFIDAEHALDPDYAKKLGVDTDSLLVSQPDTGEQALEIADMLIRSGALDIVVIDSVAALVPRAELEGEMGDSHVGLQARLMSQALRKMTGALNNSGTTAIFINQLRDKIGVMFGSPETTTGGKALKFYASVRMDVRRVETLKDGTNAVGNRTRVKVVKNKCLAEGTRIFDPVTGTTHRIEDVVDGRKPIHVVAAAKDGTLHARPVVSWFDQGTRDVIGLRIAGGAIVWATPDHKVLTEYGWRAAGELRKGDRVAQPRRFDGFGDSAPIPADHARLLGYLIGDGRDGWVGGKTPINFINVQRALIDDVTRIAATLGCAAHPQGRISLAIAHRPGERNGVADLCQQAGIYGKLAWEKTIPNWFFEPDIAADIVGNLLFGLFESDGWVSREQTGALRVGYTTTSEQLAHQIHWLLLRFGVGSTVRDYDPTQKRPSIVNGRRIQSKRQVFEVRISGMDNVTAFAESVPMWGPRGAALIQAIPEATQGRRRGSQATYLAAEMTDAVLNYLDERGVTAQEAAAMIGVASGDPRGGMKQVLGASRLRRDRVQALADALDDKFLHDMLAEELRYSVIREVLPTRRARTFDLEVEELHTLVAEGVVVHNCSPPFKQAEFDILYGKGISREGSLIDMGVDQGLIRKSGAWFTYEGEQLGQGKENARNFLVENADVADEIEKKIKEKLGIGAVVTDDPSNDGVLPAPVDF

[10] = tested on: Streptococcus sp. 'group A'; test: Streptococcus pyogenes SK(-)GAS viability under kanamycin – luminescence, BacTiterGlo, confirmation, counter-screen for streptokinase expression inhibitor project, dose response (AID 1900); assay type: functional, organism-based
[11] = molecular target: T5, SUMO-activating enzyme (Homo sapiens, UniProt Q9UBT2); test: blockers of UBC9-mediated SUMO conjugation – biochemical, AlphaScreen, SUMOylation inhibitor project, confirmation (AID 2018); assay type: functional
T5 sequence (Q9UBE0 whole entry): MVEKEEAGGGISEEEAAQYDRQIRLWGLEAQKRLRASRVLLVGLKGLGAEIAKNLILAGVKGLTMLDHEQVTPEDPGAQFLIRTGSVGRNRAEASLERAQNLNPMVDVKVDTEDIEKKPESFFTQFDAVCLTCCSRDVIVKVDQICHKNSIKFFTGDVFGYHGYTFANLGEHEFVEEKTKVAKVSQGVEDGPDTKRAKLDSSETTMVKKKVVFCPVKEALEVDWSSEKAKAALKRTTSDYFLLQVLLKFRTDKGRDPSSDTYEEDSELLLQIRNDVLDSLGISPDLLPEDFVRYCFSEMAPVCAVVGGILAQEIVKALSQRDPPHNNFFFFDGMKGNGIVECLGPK
T5 sequence (Q9UBT2 whole entry): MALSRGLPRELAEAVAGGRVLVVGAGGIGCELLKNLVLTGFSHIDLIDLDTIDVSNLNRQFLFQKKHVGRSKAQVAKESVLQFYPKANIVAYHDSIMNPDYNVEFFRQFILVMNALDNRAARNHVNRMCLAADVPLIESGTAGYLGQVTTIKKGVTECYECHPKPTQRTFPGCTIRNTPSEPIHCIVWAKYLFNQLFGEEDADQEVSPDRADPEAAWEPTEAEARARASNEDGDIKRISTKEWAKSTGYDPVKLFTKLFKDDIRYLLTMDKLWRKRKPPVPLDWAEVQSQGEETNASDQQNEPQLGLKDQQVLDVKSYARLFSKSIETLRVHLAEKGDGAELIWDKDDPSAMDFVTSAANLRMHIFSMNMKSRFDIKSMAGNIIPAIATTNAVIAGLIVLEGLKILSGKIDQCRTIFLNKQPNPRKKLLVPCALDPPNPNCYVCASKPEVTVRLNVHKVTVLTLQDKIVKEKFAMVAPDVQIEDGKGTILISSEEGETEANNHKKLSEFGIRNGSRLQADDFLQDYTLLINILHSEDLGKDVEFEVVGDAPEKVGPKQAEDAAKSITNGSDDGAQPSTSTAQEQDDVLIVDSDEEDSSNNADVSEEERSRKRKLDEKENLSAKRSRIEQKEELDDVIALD

[12] = molecular target: T5, SUMO-activating enzyme; test: blockers of SAE1/SAE2–UBC9 SUMO transfer – biochemical, HTRF, uHTS, primary screen (AID 2006); assay type: protein-complex assay
[13] = tested on: Streptococcus; test: GAS UMAA2166 growth inhibition – luminescence, BacTiterGlo, counter-screen for streptokinase expression inhibitor project, dose response (AID 1915); assay type: functional, organism-based;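 further: potency for reduction of bacterial viability or growth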
[14] = molecular target: Voltage-dependent T-type calcium channel subunit alpha-1H (Homo sapiens, UniProt O95180); test: human CACNA1H calcium influx blockade – cell-based, synthetic library set 1, calcium flux (AID 493022); assay type: functional
Sequence of Voltage-dependent T-type calcium channel subunit alpha-1H (O95180 whole entry): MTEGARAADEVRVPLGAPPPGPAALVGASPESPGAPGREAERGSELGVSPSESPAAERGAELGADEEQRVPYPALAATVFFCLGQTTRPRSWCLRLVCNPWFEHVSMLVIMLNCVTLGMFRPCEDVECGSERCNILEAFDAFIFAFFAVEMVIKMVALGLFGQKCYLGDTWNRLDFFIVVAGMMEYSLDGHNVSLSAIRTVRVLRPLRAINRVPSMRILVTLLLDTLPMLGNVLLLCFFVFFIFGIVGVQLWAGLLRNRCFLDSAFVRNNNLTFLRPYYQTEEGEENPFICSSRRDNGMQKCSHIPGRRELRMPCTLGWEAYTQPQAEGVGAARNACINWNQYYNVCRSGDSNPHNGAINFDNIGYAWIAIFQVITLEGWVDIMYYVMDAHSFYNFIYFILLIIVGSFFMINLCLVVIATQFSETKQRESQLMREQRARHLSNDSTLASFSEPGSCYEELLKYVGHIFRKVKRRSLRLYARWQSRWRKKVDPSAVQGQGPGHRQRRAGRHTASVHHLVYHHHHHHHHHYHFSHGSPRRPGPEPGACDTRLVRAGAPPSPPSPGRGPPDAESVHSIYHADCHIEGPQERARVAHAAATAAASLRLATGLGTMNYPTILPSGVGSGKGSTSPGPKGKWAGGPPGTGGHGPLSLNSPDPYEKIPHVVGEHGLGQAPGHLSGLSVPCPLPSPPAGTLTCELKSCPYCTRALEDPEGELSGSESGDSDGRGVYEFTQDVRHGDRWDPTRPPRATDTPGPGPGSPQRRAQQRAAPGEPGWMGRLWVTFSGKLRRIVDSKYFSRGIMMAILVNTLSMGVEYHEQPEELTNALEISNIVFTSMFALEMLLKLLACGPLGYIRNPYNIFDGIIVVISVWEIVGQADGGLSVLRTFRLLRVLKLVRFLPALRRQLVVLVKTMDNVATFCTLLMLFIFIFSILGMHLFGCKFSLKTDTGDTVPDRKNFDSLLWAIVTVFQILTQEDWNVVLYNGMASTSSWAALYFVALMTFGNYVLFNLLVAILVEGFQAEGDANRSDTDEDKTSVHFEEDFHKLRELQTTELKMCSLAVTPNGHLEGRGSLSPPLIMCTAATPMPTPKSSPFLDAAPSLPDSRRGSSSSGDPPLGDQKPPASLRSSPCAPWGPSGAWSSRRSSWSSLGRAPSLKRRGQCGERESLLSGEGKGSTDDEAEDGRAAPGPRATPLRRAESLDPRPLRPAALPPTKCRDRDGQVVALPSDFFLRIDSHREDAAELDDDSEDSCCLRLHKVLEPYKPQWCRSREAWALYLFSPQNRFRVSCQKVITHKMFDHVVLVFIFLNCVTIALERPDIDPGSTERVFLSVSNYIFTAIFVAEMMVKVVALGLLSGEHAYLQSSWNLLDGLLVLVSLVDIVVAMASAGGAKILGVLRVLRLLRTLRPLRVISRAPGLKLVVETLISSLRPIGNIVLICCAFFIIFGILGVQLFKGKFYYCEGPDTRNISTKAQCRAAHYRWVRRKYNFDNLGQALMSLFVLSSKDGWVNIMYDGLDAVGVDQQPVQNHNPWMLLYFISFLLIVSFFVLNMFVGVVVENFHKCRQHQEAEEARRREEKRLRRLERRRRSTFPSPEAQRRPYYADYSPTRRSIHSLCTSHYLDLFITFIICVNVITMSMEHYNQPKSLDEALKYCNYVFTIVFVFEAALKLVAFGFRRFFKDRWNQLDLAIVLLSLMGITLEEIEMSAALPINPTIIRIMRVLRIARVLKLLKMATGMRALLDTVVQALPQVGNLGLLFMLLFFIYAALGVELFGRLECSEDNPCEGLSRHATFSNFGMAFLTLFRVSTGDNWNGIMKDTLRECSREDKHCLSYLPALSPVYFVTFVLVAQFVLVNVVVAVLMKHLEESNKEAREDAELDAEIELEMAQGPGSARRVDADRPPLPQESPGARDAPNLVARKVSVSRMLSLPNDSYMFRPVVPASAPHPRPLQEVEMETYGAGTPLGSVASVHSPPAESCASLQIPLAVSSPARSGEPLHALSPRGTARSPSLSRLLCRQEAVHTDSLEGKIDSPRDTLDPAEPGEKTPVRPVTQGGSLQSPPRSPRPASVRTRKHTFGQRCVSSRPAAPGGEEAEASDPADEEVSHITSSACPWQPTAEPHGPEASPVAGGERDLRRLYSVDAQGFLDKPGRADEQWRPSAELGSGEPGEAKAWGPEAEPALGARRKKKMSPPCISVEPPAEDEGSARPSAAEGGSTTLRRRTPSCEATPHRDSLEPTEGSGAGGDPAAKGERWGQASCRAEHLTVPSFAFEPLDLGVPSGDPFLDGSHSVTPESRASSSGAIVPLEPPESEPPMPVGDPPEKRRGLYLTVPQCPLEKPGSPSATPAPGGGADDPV

[15] = tested on: Vero; test: Vero 76 cell viability after compound exposure – Vero 76 cells, synthesized analogs, cytotoxicity control for West Nile virus antiviral project, SAR follow-up (AID 2414); assay type: functional; details: Chlorocebus sabaeus
[16] = tested on: Vero; test: Vero cell viability after compound exposure – synthesized analogs, set II, cytotoxicity control for West Nile virus antiviral project, SAR follow-up (AID 2402); assay type: functional; details: Chlorocebus sabaeus
[17] = tested on: Vero; test: host cell viability loss, Vero E6 – synthesized analogs, cytotoxicity control for West Nile virus antiviral project, SAR follow-up (AID 2244); assay type: functional; details: Chlorocebus sabaeus
[18] = A Cell Based Assay for the Identification of Probe candidate Compounds with Anti- Venezuelan Equine Encephalitis virus. [Related pubchem assays: 2409, 2419, 1621, 2238, 2405, 2024, 2065, 2402, 2414, 1635, 1650, 2244 ]; assay type: functional
[19] = tested on: Vero; test: antiviral protection of cells from WNV – synthesized analogs, SAR follow-up (AID 2238); assay type: functional, cell-based; details: Chlorocebus sabaeus
[20] = tested on: Vero; test: antiviral activity against WNV, CPE read-out – cell-based (AID 2419); assay type: functional; details: Chlorocebus sabaeus
[21] = tested on: Vero; test: inhibition of WNV-induced cytopathic effect – cell-based, CPE readout (AID 1621); assay type: functional; details: Chlorocebus sabaeus
[22] = molecular target: Mu-type opioid receptor (Homo sapiens, UniProt P35372); test: SAR Analysis of Antagonists of the MOR Receptor using an Image-Based Assay - Set 3. [Related pubchem assays (depositor defined):AID1777, AID1785, AID1786, AID1966, AID2133, AID2136, AID2284, AID2285, AID2420]; assay type: functional
Sequence of Mu-type opioid receptor (P35372 whole entry): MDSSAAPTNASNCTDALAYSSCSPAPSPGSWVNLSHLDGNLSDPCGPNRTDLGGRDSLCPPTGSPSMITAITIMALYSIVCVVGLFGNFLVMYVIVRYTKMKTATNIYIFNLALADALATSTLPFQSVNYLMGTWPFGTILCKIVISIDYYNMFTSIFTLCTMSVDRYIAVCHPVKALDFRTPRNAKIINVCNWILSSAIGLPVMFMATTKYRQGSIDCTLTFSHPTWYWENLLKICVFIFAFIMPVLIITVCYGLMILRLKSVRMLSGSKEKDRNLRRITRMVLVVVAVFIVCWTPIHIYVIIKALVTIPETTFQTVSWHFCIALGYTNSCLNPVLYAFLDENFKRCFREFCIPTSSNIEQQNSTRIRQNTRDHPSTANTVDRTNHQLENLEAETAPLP

[23] = molecular target: T6, Kappa-type opioid receptor (Homo sapiens, UniProt P41145); test: SAR analysis of small molecule antagonists of the kappa opioid receptor via a luminescent beta-arrestin assay - Set 6. [Related pubchem assays (depositor defined):AID1777, AID1778, AID1785, AID1786, AID1966, AID2133, AID2136, AID2285]; assay type: functional
T6 sequence (P41145 whole entry): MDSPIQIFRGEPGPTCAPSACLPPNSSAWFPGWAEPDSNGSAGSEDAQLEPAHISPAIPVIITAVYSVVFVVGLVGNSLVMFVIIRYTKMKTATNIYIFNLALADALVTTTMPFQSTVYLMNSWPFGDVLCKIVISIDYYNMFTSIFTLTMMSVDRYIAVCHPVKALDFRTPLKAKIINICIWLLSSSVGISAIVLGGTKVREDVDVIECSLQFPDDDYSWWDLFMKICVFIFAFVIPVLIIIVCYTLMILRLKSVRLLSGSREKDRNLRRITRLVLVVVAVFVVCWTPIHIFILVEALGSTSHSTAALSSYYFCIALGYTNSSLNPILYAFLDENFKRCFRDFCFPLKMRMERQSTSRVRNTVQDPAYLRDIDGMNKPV

[24] = molecular target: T6, Kappa-type opioid receptor; test: SAR analysis of small molecule antagonists of the kappa opioid receptor via a luminescent beta-arrestin assay - Set 4. [Related pubchem assays (depositor defined):AID1777, AID1778, AID1785, AID1786, AID1966, AID2133, AID2136, AID2285]; assay type: functional
[25] = molecular target: Delta-type opioid receptor (Homo sapiens, UniProt P41143); test: SAR Analysis of Antagonists of the DOR Receptor using an Image-Based Assay - Set 3. [Related pubchem assays (depositor defined):AID1777, AID1785]; assay type: functional;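 further: U2OS cells expressing DOR1 and beta-arrestin GFP stimulated with 100 nM SNC80; imaging of GFP-tagged beta-arrestin moving into spots after receptor activation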
Sequence of Delta-type opioid receptor (P41143 whole entry): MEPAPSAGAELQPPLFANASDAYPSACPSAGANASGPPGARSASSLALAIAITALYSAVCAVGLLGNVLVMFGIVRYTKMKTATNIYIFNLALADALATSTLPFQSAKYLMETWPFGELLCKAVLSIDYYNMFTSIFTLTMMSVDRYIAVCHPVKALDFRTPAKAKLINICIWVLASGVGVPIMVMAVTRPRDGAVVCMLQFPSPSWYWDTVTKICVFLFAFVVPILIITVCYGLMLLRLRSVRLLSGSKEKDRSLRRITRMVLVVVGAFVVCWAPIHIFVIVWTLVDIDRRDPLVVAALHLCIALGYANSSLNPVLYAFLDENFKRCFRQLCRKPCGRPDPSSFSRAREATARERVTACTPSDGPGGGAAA

[26] = molecular target: T6, Kappa-type opioid receptor; test: SAR analysis of Antagonists of the Kappa Opioid Receptor (KOR) using an Image-Based Assay - Set 4. [Related pubchem assays (depositor defined):AID1777, AID1785]; assay type: functional

SMILES: CCOC(=O)C1=C(c2ccccc2)N=C(N)NC1c1ccc(OCc2ccc(C(=O)OC)cc2)cc1 (stereo unspecified)
- CC50 [1]: 11.8 µM (active)
- CC50 [2]: > 20 µM (active)
- IC50 [3]: > 20 µM (inactive)
- CC50 [4]: 18.2 µM (active)
- IC50 [5]: 62.3 µM (active)
- IC50 [6]: 9.88 µM (active)
- AC50 [7]: 15.6 µM (active)
- IC50 [8]: 26.8 µM (active)
- EC50 [9]: 11.8 µM (active)

SMILES: O=C(COc1ccc(Cl)cc1)Nc1nnc(-c2ccc3c(c2)CCCC3)o1
- EC50 [10]: 0.489 µM (active)
- IC50 [11]: > 100 µM (inactive)
- IC50 [12]: 48.2 µM (active)
- EC50 [13]: 1.83 µM (active)
- EC50 [14]: 2.8 µM (active)

SMILES: CCOC(=O)C1(Cc2ccccc2C(F)(F)F)CCN(C2CCN(C(C)C)CC2)CC1
- CC50 [15]: > 133 µM (active)
- CC50 [16]: 31.5 µM (active)
- CC50 [17]: 21.6 µM (active)
- IC50 [18]: 6.36 µM (active)
- IC50 [19]: 36.5 µM (active)
- IC50 [20]: > 50 µM (active)
- IC50 [21]: 18.6 µM (active)

SMILES: Cc1ccc(S(=O)(=O)NCc2ccc(C(=O)NCCN3CCN(c4ccccc4)CC3)cc2)cc1
- IC50 [22]: > 32 µM (inactive)
- IC50 [23]: > 20 µM (inactive)
- IC50 [24]: > 20 µM (inactive)
- IC50 [25]: > 32 µM (inactive)
- IC50 [26]: > 32 µM (inactive)
